The target of assay [1] is CRBN/DDB1 (Homo sapiens (Human), UniProt Q96SW2). Format: binding. To be noted: His tagged CRBN+DDB1, Cy5-labeled Thalidomide probe, one hour; read-out: CRBN HTRF IC50. The procedure:
The binding potency was determined using HTRF assay technology (Perkin Elmer). Compounds were serially diluted in DMSO and […] volume was transferred to white 384-well plate.
Background: TR-FRET usually uses a lanthanide donor and a delayed reading to cut background.

In assay [2] the target is ER in MCF-7 cells (Homo sapiens (Human), UniProt P03372). Nature of the assay: In-cell Western (ICW) ER degradation assay in MCF-7 cells. Format: cell-based. As to conditions: for DC50: MCF-7, ER degradation, read-out: MCF7 DC50.
For assay [3], the target named is ER (Homo sapiens (Human), UniProt P03372). Nature of the assay: In-cell western blot analysis of ER for "B" compounds. Format: cell-based. To be noted: 16 hours, read-out: ICW DC50. The method in brief:
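ER levels given as a percentage of untreated/DMSO-treated wells (100%). Detection used primary antibodies for 2 h at room temperature followed by 680 and 800 nm fluorescent secondaries at 1:1000 for 1 h, read by LI-COR imaging.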

Assay [4] in a line: Cell growth assay (WST-8) for "B" compounds. Type of assay: cell-based. As to conditions: read-out: Cell growth Inhibition in T47D cell line IC50. The gist of the method: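 Four-day compound exposure of cells plated at 1500/well the day before. Read-out is WST-8 (10%, 2.5 h, 37 °C) absorbance at 450 nm, normalized to vehicle control over three independent repeats.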
(In general: Tetrazolium dyes change colour on reduction, which living cells bring about.)

Setting [5] is: MCF7, MCF-7, maximal ER degradation, 16 hrs treatment, read-out: MCF7 Dmax.

Where two headings read alike, the source gives them in different places.

CRBN/DDB1, sequence (Q96SW2 whole entry, species assumed): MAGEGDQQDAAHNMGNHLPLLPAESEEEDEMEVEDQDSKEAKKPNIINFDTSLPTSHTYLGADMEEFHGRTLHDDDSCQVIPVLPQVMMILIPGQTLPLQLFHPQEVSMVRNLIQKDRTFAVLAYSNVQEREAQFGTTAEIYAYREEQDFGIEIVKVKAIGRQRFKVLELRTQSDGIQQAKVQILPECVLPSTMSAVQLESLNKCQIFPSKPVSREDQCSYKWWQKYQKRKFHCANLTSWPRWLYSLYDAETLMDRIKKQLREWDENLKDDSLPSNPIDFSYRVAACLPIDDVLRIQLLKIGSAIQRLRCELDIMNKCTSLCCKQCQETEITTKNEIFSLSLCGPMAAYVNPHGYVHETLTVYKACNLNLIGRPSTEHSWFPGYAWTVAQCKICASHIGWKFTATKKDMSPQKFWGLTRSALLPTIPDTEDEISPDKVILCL
CRBN/DDB1, sequence (Q16531 whole entry partner, species assumed): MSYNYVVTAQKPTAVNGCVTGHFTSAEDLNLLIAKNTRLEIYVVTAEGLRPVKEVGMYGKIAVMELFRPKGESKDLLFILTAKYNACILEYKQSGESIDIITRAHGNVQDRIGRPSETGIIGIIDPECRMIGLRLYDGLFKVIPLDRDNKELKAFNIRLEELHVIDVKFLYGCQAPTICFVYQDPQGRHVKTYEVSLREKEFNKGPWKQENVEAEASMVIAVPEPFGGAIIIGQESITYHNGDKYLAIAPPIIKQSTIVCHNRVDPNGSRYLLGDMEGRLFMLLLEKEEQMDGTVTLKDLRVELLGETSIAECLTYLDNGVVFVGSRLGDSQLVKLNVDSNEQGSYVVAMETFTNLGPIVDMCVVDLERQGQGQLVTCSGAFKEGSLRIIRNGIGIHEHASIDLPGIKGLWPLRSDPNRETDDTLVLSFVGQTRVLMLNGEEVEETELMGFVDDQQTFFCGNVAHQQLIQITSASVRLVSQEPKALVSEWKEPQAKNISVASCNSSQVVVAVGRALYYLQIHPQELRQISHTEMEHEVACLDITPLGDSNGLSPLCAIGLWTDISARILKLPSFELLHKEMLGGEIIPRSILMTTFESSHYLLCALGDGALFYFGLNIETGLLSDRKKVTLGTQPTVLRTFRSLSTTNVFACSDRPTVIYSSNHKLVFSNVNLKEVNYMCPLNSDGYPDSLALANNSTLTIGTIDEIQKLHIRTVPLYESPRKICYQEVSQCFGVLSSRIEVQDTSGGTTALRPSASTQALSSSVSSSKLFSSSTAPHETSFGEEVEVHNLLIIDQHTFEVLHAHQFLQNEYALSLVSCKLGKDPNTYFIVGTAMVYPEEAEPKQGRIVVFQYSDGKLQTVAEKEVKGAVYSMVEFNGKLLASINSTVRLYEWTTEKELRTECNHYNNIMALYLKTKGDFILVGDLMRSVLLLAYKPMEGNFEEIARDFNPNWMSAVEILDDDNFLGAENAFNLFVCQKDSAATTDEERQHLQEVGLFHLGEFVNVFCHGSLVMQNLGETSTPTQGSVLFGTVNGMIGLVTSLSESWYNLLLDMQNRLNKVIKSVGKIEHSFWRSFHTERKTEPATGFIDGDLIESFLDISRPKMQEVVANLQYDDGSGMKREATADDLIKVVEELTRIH
ER, sequence (P03372 whole entry): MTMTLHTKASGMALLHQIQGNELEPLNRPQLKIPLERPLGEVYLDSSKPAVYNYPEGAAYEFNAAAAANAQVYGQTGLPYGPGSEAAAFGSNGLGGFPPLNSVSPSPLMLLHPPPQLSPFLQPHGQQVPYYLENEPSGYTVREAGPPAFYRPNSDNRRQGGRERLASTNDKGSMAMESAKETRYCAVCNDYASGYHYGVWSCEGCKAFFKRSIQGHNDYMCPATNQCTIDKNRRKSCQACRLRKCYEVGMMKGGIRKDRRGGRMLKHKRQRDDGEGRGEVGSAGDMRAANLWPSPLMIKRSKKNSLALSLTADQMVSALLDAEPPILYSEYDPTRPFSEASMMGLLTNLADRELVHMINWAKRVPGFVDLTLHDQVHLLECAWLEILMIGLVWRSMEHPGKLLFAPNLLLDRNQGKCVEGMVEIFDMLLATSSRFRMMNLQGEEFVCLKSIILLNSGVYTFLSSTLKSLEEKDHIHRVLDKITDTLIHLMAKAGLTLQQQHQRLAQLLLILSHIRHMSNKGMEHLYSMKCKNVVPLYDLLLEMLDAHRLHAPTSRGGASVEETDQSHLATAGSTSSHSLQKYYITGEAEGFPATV
ER in MCF-7 cells, sequence (P03372 whole entry): as above

One may read the IC50 as the concentration at which inhibition is half-maximal. By Dmax is commonly meant the largest share of the target that was removed. In the case of `O=C1CC[C@H](N2Cc3c(ccc4c3OCC43CCN(CC4CC5(CCN(c6ncc([C@@H]7c8ccc(O)cc8CC[C@@H]7c7ccccc7)cn6)CC5)C4)CC3)C2=O)C(=O)N1` [Compound A142, (S)-3-(1′-((7-(5-((1S,2S)-6-hydroxy-2-phenyl-1,2,3,4-tetrahydronaphthalen-1-yl)pyrimidin-2-yl)-7-azaspiro[3.5]nonan-2-yl)methyl)-6-oxo-6,8-dihydro-2H,7H-spiro[furo[2,3-e]isoindole-3,4′-piperidin]-7-yl)piperidine-2,6-dione], the IC50 in assay [1] was less than 50 nM. In assay [2] (MCF7, read-out: MCF7 Dmax, MCF-7, maximal ER degradation, 16 hrs treatment), the Dmax was 50 to 75%. The DC50 in assay [2] (16 hrs treatment) is less than 1 nM.

Turning to `COc1cc(N2CC3(CCC(CN4CCN5c6ccc7c(c6OC[C@H]5C4)CN([C@H]4CCC(=O)NC4=O)C7=O)CC3)C2)c(F)cc1[C@@H]1c2ccc(O)cc2CC[C@@H]1c1ccccc1` (single isomer, unassigned) [Compound A163], the IC50 in assay [1] lay within 50 to 500 nM. Moreover, the Dmax in assay [2] (setting [5]) was more than 75%. Also, the DC50 in assay [2] (16 hrs treatment) was 1 to 10 nM.

Consider `O=C1CC[C@H](N2Cc3c(ccc4c3OC[C@H]3CN(CC5CCC6(CC5)CN(c5ncc([C@@H]7c8ccc(O)cc8CC[C@@H]7c7ccccc7)cn5)C6)CCN43)C2=O)C(=O)N1` (single isomer, unassigned) [Compound A156], for which the IC50 in assay [1] lay within 50 to 500 nM. Besides, the Dmax in assay [2] (setting [5]) is more than 75%. For the same compound, the DC50 in assay [2] (16 hrs treatment) is less than 1 nM.

In the case of “(S)-3-((3-fluoro-4-(1-((1-(2-fluoro-4-((1S,2S)-6-hydroxy-2-phenyl-1,2,3,4-tetrahydronaphthalen-1-yl)-5-methoxyphenyl)piperidin-4-yl)methyl)piperidin-4-yl)phenyl)amino)piperidine-2,6-dione [Compound A120]”, in assay [1], the IC50 was 500 to 5000 nM. In addition, the DC50 in assay [2] (16 hrs treatment) lay within 10 to 100 nM. Moreover, in assay [2] (MCF-7, maximal ER degradation, 16 hrs treatment), the “MCF7 Dmax” value is “C (“C”: 25-50%)”.

Turning to `O=C1CC[C@H](N2Cc3cc4c(cc3C2=O)OC[C@@H]2CN(CC3CCC5(CC3)CN(c3ccc([C@H]6c7ccc(O)cc7CC[C@H]6c6ccccc6)cc3F)C5)CCN42)C(=O)N1` (single isomer, unassigned) [Compound A151], the IC50 in assay [1] lay in the range of 500 to 5000 nM. In addition, the Dmax in assay [2] (setting [5]) is 25 to 50%. The DC50 in assay [2] (16 hrs treatment) was in the range of 10 to 100 nM.

On to `O=C1CC[C@H](N2Cc3c(ccc4c3OC[C@H]3CN(CC5CCC6(CC5)CN(c5ccc([C@@H]7c8ccc(O)cc8CC[C@@H]7c7ccccc7)cc5F)C6)CCN43)C2=O)C(=O)N1` (single isomer, unassigned) [Compound A152], for which, in assay [1], the half-inhibitory concentration (IC50) fell in the range of 500 to 5000 nM. In addition, the Dmax in assay [2] (setting [5]) was in the range of 50 to 75%. The DC50 in assay [2] (16 hrs treatment) fell in the range of 1 to 10 nM.

As to `O=C1CCC(N2Cc3c(ccc4c3OCC43CCN(CC(=O)OC4CCN(c5ccc([C@@H]6c7ccc(O)cc7CC[C@@H]6c6ccccc6)cc5)CC4)CC3)C2=O)C(=O)N1` (stereo partly drawn) [Compound B343, 1-(4-((1R,2S)-6-hydroxy-2-phenyl-1,2,3,4-tetrahydronaphthalen-1-yl)phenyl)piperidin-4-yl 2-(7-((S)-2,6-dioxopiperidin-3-yl)-6-oxo-7,8-dihydro-2H,6H-spiro[furo[2,3-c]isoindolc-3,4′-piperidin]-1′-yl)acetate], the DC50 in assay [3] is more than 100 nM. For the same compound, the half-inhibitory concentration (IC50) in assay [4] (T47D) was in the range of 1 to 10 nM.

For `O=C1CCC(N2Cc3c(ccc4c3OC[C@H]3CN(CC5COC6(C5)CN(c5ccc([C@@H]7c8ccc(O)cc8CC[C@@H]7c7ccccc7)cc5)C6)CCN43)C2=O)C(=O)N1` (stereo partly drawn) [Compound B230, 3-((5aR)-7-((2-(4-((1R,2S)-6-hydroxy-2-phenyl-1,2,3,4-tetrahydronaphthalen-1-yl)phenyl)-5-oxa-2-azaspiro[3.4]octan-7-yl)methyl)-1-oxo-1,3,5,5a,6,7,8,9-octahydro-2H-pyrazino[1′,2′:4,5][1,4]oxazino[2,3-e]isoindol-2-yl)piperidine-2,6-dione], the DC50 in assay [3] is less than 10 nM. In assay [4] (T47D, T47D cell line), the IC50 was less than 1 nM.

Regarding `O=C1CCC(N2Cc3cc4c(cc3C2=O)OC[C@@H]2CN(CC3CC5(CCN(c6ccc([C@@H]7c8ccc(O)cc8CC[C@@H]7c7ccccc7)cc6)C5)C3)CCN42)C(=O)N1` (stereo partly drawn) [Compound B233, 3-((S)-3-((6-(4-((1R,2S)-6-hydroxy-2-phenyl-1,2,3,4-tetrahydronaphthalen-1-yl)phenyl)-6-azaspiro[3.4]octan-2-yl)methyl)-8-oxo-1,2,3,4,4a,5,8,10-octahydro-9H-pyrazino[1′,2′:4,5][1,4]oxazino[2,3-f]isoindol-9-yl)piperidine-2,6-dione], the DC50 in assay [3] was more than 100 nM. Moreover, the IC50 in assay [4] (T47D, T47D cell line) was in the range of 1 to 10 nM.

Turning to `O=C1CCC(N2Cc3cc4c(cc3C2=O)OC[C@@H]2CN(C3CN(C5CCN(c6ccc([C@@H]7c8ccc(O)cc8CC[C@@H]7c7ccccc7)cc6)CC5)C3)CCN42)C(=O)N1` (stereo partly drawn) [Compound B167, 3-((S)-3-(1-(1-(4-((1R,2S)-6-hydroxy-2-phenyl-1,2,3,4-tetrahydronaphthalen-1-yl)phenyl)piperidin-4-yl)azetidin-3-yl)-8-oxo-1,2,3,4,4a,5,8,10-octahydro-9H-pyrazino[1′,2′:4,5][1,4]oxazino[2,3-f]isoindol-9-yl)piperidine-2,6-dione], the DC50 in assay [3] was less than 10 nM. Also, the IC50 in assay [4] (T47D, T47D cell line) was less than 1 nM.

As for `O=C1CC[C@H](NC(=O)c2ccc3c(n2)OC[C@H]2CN(CC4CCC5(C4)CN(c4ccc([C@@H]6c7ccc(O)cc7CC[C@@H]6c6ccccc6)cc4)C5)CCN32)C(=O)N1` (stereo partly drawn) [Compound B360, (4aR)-N-((S)-2,6-dioxopiperidin-3-yl)-3-((2-(4-((1R,2S)-6-hydroxy-2-phenyl-1,2,3,4-tetrahydronaphthalen-1-yl)phenyl)-2-azaspiro[3.4]octan-6-yl)methyl)-1,2,3,4,4a,5-hexahydropyrazino[1,2-d]pyrido[2,3-b][1,4]oxazine-8-carboxamide], the DC50 in assay [3] was more than 100 nM. For the same compound, the IC50 in assay [4] (T47D, T47D cell line) was more than 10 nM.

As for `O=C1CC[C@H](N2Cc3cc4c(cc3C2=O)OC[C@@H]2CN(CC3CCC5(CC3)CN(c3ccc([C@@H]6c7ccc(O)cc7CC[C@@H]6c6ccccc6)cc3)C5)CCN42)C(=O)N1` (single isomer, unassigned) [Compound A63], the IC50 in assay [1] lay in the range of 500 to 5000 nM.

Regarding `O=C1CCC(N2Cc3cc4c(cc3C2=O)OC[C@@H]2CN(CC(=O)N3CC5(CC(Nc6ccc([C@@H]7c8ccc(O)cc8CC[C@@H]7c7ccccc7)cc6)C5)C3)CCN42)C(=O)N1` (stereo partly drawn) [Compound B153, 3-((S)-3-(2-(6-((4-((1R,2S)-6-hydroxy-2-phenyl-1,2,3,4-tetrahydronaphthalen-1-yl)phenyl)amino)-2-azaspiro[3.3]heptan-2-yl)-2-oxoethyl)-8-oxo-1,2,3,4,4a,5,8,10-octahydro-9H-pyrazino[1′,2′:4,5][1,4]oxazino[2,3-f]isoindol-9-yl)piperidine-2,6-dione], in assay [3], the DC50 is less than 10 nM. Also, in assay [4] (T47D, T47D cell line), the IC50 was less than 1 nM.

In the case of `O=C1CCC(N2Cc3cc4c(cc3C2=O)OC[C@@H]2CN(CC(=O)N3CCC5(CC3)CCN(c3ccc([C@@H]6c7ccc(O)cc7CC[C@@H]6c6ccccc6)cn3)CC5)CCN42)C(=O)N1` (stereo partly drawn) [Compound B148, 3-((S)-3-(2-(9-(5-(cis-6-hydroxy-2-phenyl-1,2,3,4-tetrahydronaphthalen-1-yl)pyridin-2-yl)-3,9-diazaspiro[5.5]undecan-3-yl)-2-oxoethyl)-8-oxo-1,2,3,4,4a,5,8,10-octahydro-9H-pyrazino[1′,2′: 4,5][1,4]oxazino[2,3-f]isoindol-9-yl)piperidine-2,6-dione], the DC50 in assay [3] was in the range of 10 to 100 nM. The IC50 in assay [4] (T47D, T47D cell line) lay in the range of 1 to 10 nM.

Turning to `O=C1CCC(N2Cc3cc4c(cc3C2=O)CN(CC2COC3(CCN(c5ccc([C@@H]6c7ccc(O)cc7CC[C@@H]6c6ccccc6)cc5)CC3)C2)C4)C(=O)N1` (stereo partly drawn) [Compound B352, 3-(6-((8-(4-((1R,2S)-6-hydroxy-2-phenyl-1,2,3,4-tetrahydronaphthalcn-1-yl)phcnyl)-1-oxa-8-azaspiro[4.5]decan-3-yl)methyl)-1-oxo-3,5,6,7-tetrahydropyrrolo[3,4-f]isoindol-2(1H)-yl)piperidine-2,6-dione], in assay [3], the DC50 is 10 to 100 nM. For the same compound, the IC50 in assay [4] (T47D cell line) is 1 to 10 nM.

Regarding `CN(C(=O)c1ccc2c(c1)OC[C@@H]1CN(CC3CC4(CCN(c5ccc([C@@H]6c7ccc(O)cc7CC[C@@H]6c6ccccc6)cc5)CC4)C3)CCN21)C1CCC(=O)NC1=O` (stereo partly drawn) [Compound B312, (4aS)-N-(2,6-dioxopiperidin-3-yl)-3-((7-(4-((1R,2S)-6-hydroxy-2-phenyl-1,2,3,4-tetrahydronaphthalen-1-yl)phenyl)-7-azaspiro[3.5]nonan-2-yl)methyl)-N-methyl-1,2,3,4,4a,5-hexahydrobenzo[b]pyrazino[1,2-d][1,4]oxazine-8-carboxamide], the DC50 in assay [3] was more than 100 nM. Moreover, in assay [4] (T47D, T47D cell line), the IC50 was less than 1 nM.

Regarding `O=C1CCC(N2Cc3cc4c(cc3C2=O)OC[C@@H]2CN(CC3COC5(C3)CN(c3ccc([C@@H]6c7ccc(O)cc7CC[C@@H]6c6ccccc6)cc3)C5)CCN42)C(=O)N1` (stereo partly drawn) [Compound B231, 3-((4aS)-3-((2-(4-((1R,2S)-6-hydroxy-2-phenyl-1,2,3,4-tetrahydronaphthalen-1-yl)phenyl)-5-oxa-2-azaspiro[3.4]octan-7-yl)methyl)-8-oxo-1,2,3,4,4a,5,8,10-octahydro-9H-pyrazino[1′,2′:4,5][1,4]oxazino[2,3-f]isoindol-9-yl)piperidine-2,6-dione], the DC50 in assay [3] lay in the range of 10 to 100 nM. Besides, in assay [4] (T47D, T47D cell line), the half-maximal inhibitory concentration (IC50) is less than 1 nM.

Values taken from patent publication US20260028354A1, “TETRAHYDRONAPHTHALENE DERIVATIVES AS ESTROGEN RECEPTOR DEGRADERS” (REGENT OF THE UNIVERSITY OF MICHIGAN, priority 2022, published 2026).
